Laboratory results as given in article PMC3910367 (Science signaling, 2013).
Like-named read-outs stand apart in the source and are kept apart here.

Legend:
[1] = test system: LNCaP and PC-3 cells; assay: MTT viability assay in prostate cancer cells; assay type: cell-based; conditions: read-out: IC50, antiproliferative effect (cell viability)
[2] = test system: Akt; assay: Western blot of Akt phosphorylation in prostate cancer cells; assay type: cell-based; conditions: for phosphorylation at Ser473 in Akt / phosphorylation at Thr308 in Akt: LNCaP and PC-3 cells, 24 hours; for concentrations required to induce PHLPP1-mediated Akt inhibition: prostate cancer cells
[3] = test system: PIP3; assay: Radiometric analysis of phosphoinositide production; assay type: cell-based; conditions: LNCaP cells, 500 μM, 6 hours
[4] = test system: mTORC2; assay: Western blot of mTORC2 components and downstream targets; assay type: cell-based; conditions: fig. S2C
[5] = test system: normal prostate epithelial cells; assay: MTT viability assay in normal prostate epithelial cells; assay type: cell-based; conditions: for apoptosis in normal prostate epithelial cells: fig. S1A
[6] = test system: LNCaP cells; assay type: cell-based; conditions: 24 hours
[7] = molecular target: T1, PH domain of PHLPP1 (Homo sapiens, UniProt O60346); assay: SPR binding to GST-tagged PH domain of PHLPP1
T1 sequence (O60346 536-636 limits assumed): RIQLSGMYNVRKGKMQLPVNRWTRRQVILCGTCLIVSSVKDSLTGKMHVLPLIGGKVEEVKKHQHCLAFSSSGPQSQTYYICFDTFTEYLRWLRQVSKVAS

[8] = molecular target: Y38G PH domain mutant of Akt (Homo sapiens, UniProt P31749, Y38G); assay: SPR binding to Y38G Akt PH domain mutant; conditions: versus wild-type PH domain
[9] = molecular target: PH domain of Akt (Homo sapiens, UniProt P31749); assay: SPR binding to GST-tagged PH domain of Akt; conditions: read-out: Kd, wild-type Akt PH domain
[10] = test system: LNCaP cells; assay: Cholesterol content of membrane subfractions; assay type: cell-based; conditions: fractions 3 and 4
[11] = test system: LNCaP-abl cells; assay: MTT viability assay in LNCaP-abl cells; assay type: cell-based; conditions: read-out: IC50, antiproliferative effect, fig. S5D

Y38G PH domain mutant of Akt, sequence (P31749 5-108 Y38G limits assumed): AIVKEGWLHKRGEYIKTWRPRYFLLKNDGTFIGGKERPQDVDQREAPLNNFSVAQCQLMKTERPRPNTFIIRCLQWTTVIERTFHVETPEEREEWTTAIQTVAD
PH domain of Akt, sequence (P31749 5-108 limits assumed): as the sequence (P31749 5-108 Y38G limits assumed) above, with G34Y counted along it

Row | IC50 ([1]; 24 h) [µM] | IC50 ([1]; LNCaP and PC-3 cells, MTT, 24 hours, serum-free medium) [µM] | binding to PH domains of Akt and PHLPP1 compared [7] | effect of Y38G mutation on binding affinity for the Akt PH domain [8] | Kd [9] [µM] | IC50 [11] [µM] | SMILES | phosphorylation at Ser473 in Akt [2] | phosphorylation at Thr308 in Akt [2] | concentrations required to induce PHLPP1-mediated Akt inhibition [2] | PIP3 concentrations [3] | phosphorylation of SGK or PKCα (mTORC2 downstream targets) [4] | apoptosis in normal prostate epithelial cells [5] | decrease in phosphorylation of Ser473 in Akt in non-raft fractions [6] | increase in association of PHLPP1 with the membrane in non-raft fractions [6] | IC50 ([5]; read-out: IC50, cell viability, MTT, 24 hours) [µM] | reduction of cholesterol content in raft domains [10] [%]
1 | ~400 | – | – | – | – | – | Cc1c(C)c2c(c(C)c1O)CC[C@@](C)(CCC[C@H](C)CCC[C@H](C)CCCC(C)C)O2 [α-tocopherol] | dose-dependently reduced | without altering | greater than 150 μM | unaffected | no effect | resistant | – | – | – | –
2 | 100 to 150 | – | – | – | – | – | Cc1c(O)cc2c(c1C)O[C@](C)(CCC[C@H](C)CCC[C@H](C)CCCC(C)C)CC2 [γ-tocopherol] | dose-dependently reduced | without altering | greater than 150 μM | – | no effect | resistant | – | – | – | –
3 | – | 15 to 20 | equal potency | significantly enhanced | 3.4 | 10 | Cc1c(C)c2c(c(C)c1O)CCC(C)(CCCC(C)C)O2 (stereo not drawn) [α-VE5] | parallel reduction | without disturbing | – | – | lack of changes | – | more than 65% | more than 2.5 fold | ~50 | ≤ 30
